From ChEMBL document CHEMBL1150562, “Glánvillic acids A and B and methyl capucinoate A, new metabolites isolated from the Caribbean sponges Plakortis halichondrioides and Plakinastrella onkodes” (J Nat Prod, 2001)
Values after ≈ are worked out from the molar mass of the structure shown. Active and inactive are the calls of the source. The calls are words filed in the database; no cut-off is given here.

Tests used:
[1] = tested on: P388; assay: In vivo cytotoxicity against mouse P388 cells; assay type: functional, organism-based
[2] = tested on: P388; assay: Cytotoxicity against mouse P388 cells; assay type: functional, cell-based
[3] = Cytotoxicity against mouse B16-F1 cells; assay type: functional, cell-based

| Structure (SMILES) | Activity [1] | IC50 [2] [µg/mL] | IC50 [3] [µg/mL] |
| --- | --- | --- | --- |
| CC/C=C/C(CC)CC(C)CC1(CC)C=C(CC)C(C(=O)O)OO1 (stereo not drawn) | inactive | 0.055 (≈ 0.162 µM) |  |
| COC(=O)C[C@@H]1OO[C@@](C)(/C(C)=C/C(C)=C/Cc2ccccc2)C[C@H]1C | inactive |  | 12 (≈ 33.5 µM) |
| CC/C=C/C(CC)CC(C)Cc1cc(CC)c(CC(=O)O)o1 (stereo not drawn) [GLANVILLIC ACID A] |  | > 20 |  |
| CCCC(CC)CC(C)Cc1cc(CC)c(CC(=O)O)o1 (stereo not drawn) [GLNVILLIC ACID B] |  | > 20 |  |
| COC(=O)C[C@@H]1OO[C@@](C)(/C(C)=C/C=C/Cc2ccccc2)C[C@H]1C [METHYL CAPUCINOATE A] | inactive |  | 12 (≈ 34.8 µM) |
